These are literature values, as cited in patent publication US20190105277A1, “PHARMACEUTICAL COMPOSITION COMPRISING AN ATYPICAL ANTIPSYCHOTIC AGENT AND METHOD FOR THE PREPARATION THEREOF” (PHARMATHEN S.A., priority 2016, published 2019).

Structures are written as SMILES. Like-named read-outs stand apart in the source and are kept apart here.

`Cc1nc2n(c(=O)c1CCN1CCC(c3noc4cc(F)ccc34)CC1)CCCC2O` (stereo not drawn) [Paliperidone, 3-[2-[4-(6-fluoro-1,2-benzisoxazol-3-yl)-1-piperidinyl]ethyl]-6,7,8,9-tetrahydro-9-hydroxy-2-methyl-4H-pyrido[1,2-a]pyrimidin-4-one]: the solubility result (in 0.1N HCl) is “slightly soluble”, the solubility entry (in dichloromethane) is “sparingly soluble” and the solubility result (in water) is given as “insoluble”.
